Measured values from patent US20230113944A1, “COMPOSITIONS AND METHODS FOR THE TREATMENT OF NEURODEGENERATIVE DISEASES” (priority 2020, published 2023).
Where “and” joins values, the source holds several entries; their conditions need not be identical. Identical values can stand only once. Entries after “also recorded” stand apart in the source; their conditions may differ. Like-named read-outs stand apart in the source and are kept apart here.

Columns and labels:
[1] = molecular target: T1, Human AChE (Homo sapiens, UniProt P22303); assay: biochemical
T1 construct: purchased Sigma
T1 sequence (P22303 32-614): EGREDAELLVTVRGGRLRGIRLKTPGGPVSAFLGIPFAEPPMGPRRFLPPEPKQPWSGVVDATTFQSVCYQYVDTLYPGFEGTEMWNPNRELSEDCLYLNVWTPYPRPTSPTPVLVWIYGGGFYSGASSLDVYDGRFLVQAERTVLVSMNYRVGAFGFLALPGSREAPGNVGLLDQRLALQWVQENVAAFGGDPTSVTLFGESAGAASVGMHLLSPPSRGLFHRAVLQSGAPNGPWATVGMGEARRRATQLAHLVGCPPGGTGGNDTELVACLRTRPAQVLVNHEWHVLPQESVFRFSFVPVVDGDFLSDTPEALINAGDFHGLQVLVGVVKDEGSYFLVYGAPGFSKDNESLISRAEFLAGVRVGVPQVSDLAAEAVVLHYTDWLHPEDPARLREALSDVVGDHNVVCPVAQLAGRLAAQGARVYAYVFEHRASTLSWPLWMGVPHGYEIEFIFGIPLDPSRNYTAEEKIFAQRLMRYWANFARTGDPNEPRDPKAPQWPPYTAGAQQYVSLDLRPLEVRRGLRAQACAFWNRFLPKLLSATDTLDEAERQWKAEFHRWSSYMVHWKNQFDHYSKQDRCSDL
Experimental: This acetylcholinesterase (AChE) assay is based on an Amplex Red assay kit (Thermo Fisher A12217). Human AChE (Sigma) was used. Briefly, 5 μL of compounds at the desired concentration were loaded into wells of a 384-well plate. Then, 5 μl of human AChE (30 mU/mL) was loaded into each well, followed by the addition of 10 μL of the working solution which contains 400 μM Amplex Red reagent, 2 U/mL HRP, 0.2 U/mL choline oxidase, and 100 μM acetylcholine. The reaction was monitored for 60 minutes and read at 530/590 nm. AChE IC50 was determined by plotting AChE activity as a percentage of DMSO control using GraphPad Prism software.

[2] = Parallel artificial membrane permeability (IAM column) prediction of CNS permeability; type: in vitro ADME
Experimental: To predict the potential for brain permeability, a Regis Technologies analytical column connected to an Agilent HPLC system (Infinity 1260 quaternary pump and multiple wavelength detector; 1200 autosampler) was used. An IAM.PC.DD column was (4.6 mm i.d.×10 cm, particle size 5 μm; pore size 300 Å) conditioned with 20 column volumes of mobile phase or until a stable line was achieved. A mobile phase with a consistent flow rate of 1 mL/min was used comprising 100 mM Na2PO4 (solvent A) and acetonitrile (solvent B); compounds were eluted using a gradient (min/% B: 0/30, 10/60, 11/30, 15/30). Detector settings were 220, 250 and 280 nm and acquisition time was 15 min. The autosampler injected 10 μL of compound at 2 mM final, diluted from 10 mM in DMSO in 70:30 (water:acetonitrile). After elution, compound retention and void volume times were obtained from the chromatogram. The IAM capacity factor: (KIAM) was calculated using the equation: […]
where tr is the retention time of a compound and t0 is the void volume time of the column. To predict CNS permeability, we used the correlation described by the formula below.

[3] = molecular target: T2, human nSMase2 (Homo sapiens, UniProt Q9NY59); assay: biochemical; type: biochemical; details: for IC50: IC50 nSMase2
T2 construct: expressed in transfected cells; host or cells: HEK293T
T2 sequence (Q9NY59 1-655): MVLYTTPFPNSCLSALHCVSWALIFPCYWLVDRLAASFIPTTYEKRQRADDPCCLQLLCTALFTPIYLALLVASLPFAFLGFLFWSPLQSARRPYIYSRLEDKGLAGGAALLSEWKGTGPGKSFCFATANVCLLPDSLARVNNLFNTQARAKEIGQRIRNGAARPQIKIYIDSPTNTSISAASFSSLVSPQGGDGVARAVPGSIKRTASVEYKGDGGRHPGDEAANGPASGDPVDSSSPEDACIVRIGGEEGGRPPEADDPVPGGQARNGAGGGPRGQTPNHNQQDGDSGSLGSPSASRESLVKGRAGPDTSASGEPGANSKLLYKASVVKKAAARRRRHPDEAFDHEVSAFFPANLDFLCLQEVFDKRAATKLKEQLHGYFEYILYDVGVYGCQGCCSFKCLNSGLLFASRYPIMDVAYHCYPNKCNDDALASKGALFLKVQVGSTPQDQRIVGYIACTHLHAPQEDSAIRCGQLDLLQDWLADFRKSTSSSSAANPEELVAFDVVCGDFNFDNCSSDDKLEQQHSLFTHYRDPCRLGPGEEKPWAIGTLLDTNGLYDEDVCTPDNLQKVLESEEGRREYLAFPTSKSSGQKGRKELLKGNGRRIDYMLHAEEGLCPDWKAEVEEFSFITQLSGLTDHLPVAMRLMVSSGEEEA
Experimental: To evaluate nSMase2 inhibitory activity of tested compounds, cell lysates from HEK293T cells over-expressing human nSMase2 were used as the source of the nSMase2 enzyme. The Amplex Red Sphingomyelinase activity assay was performed according to previously a described protocol^1. Confluent cells were washed with PBS and harvested with lysis buffer [100 mM Tris-HCl pH 7.5, 100 mM sucrose, 100 μM PMSF, 1× protease inhibitor cocktail] using a cell scraper, and then sonicated 3 times on ice for 10 sec and centrifuged at 10,000×g for 10 min at 4° C. to remove remaining cell debris. An initial screening of a compound library was performed using 50 μM compound concentrations. In secondary testing, selected compounds were analyzed at multiple compound concentrations and plotted as a percentage of DMSO control; dose-response curves were generated to determine IC50s using GraphPad Prism software (GraphPad Software, La Jolla Calif.). […] Activity of the enzyme in the presence of the different concentrations of the inhibitors was plotted against substrate concentration and the maximal rate of the enzymatic reaction (Vmax) and Michaelis constant were calculated using GraphPad Prism.

[4] = molecular target: human serum albumin (HSA) (Homo sapiens, UniProt P02768); assay: Binding to human serum albumin (HSA); details: for fraction unbound: human, human serum albumin
Sequence of human serum albumin (HSA) (P02768 25-609): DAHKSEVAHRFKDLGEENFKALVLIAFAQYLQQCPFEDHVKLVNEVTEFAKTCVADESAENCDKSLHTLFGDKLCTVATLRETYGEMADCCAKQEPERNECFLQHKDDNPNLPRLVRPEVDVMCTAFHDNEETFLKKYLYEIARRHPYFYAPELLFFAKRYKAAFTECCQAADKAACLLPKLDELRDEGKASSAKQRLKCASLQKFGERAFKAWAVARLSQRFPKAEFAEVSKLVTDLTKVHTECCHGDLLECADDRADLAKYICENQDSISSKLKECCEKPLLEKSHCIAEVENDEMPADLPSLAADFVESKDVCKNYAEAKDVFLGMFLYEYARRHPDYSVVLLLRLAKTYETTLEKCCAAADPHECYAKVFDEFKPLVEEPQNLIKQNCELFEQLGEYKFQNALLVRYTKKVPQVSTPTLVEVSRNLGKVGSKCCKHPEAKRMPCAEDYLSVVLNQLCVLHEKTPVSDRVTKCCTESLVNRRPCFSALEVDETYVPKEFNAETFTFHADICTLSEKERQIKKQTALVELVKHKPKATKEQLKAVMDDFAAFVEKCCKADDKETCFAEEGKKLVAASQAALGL

[5] = system: HEK293T Tau RD P301S FRET biosensor (tau biosensor) cells; assay: Donor plus Recipient (D+R) tau propagation assay; type: cell-based; details: 20 μM, 48 hrs
Experimental: HEK293T Tau RD P301S FRET biosensor (tau biosensor) cells were grown in Dulbecco's Modified Eagle's medium (DMEM) with high glucose, 10% FBS, and 1% Penicillin-streptomycin at 37° C./5% CO2. The lead inhibitors were tested in functional tau propagation “D+R” (Donors plus Recipients) and EMT (EV-mediated transfer) assays using the tau biosensors. Briefly, tau aggregation in donor cells (D) was induced by transfection of tau biosensor cells with human AD brain derived synaptosomal extracts (35 μg of synaptosomal fraction for 5 million cells in one 10 cm dish); control cells were treated with corresponding amount of transfection reagent lipofectamine 2000. After 24 hr incubation, the cells were trypsinized and plated together with DID-labeled recipient cells (R) in a 1:1 ratio in 96-well plates (15,000 of each cell type per well) for D+R assay or 1.5 million of donor cells per well in 6-well plates for EMT assay. Tested compounds or a corresponding amount of DMSO (0.2%) was added to the cell culture medium, DMEM, which contained 10% of exosome-depleted FBS (ThermoFisher, A2720803). Four technical replicates were used for each experimental condition. The inhibitors were tested at 20 μM concentration. […] Tau seed transfer from donor to recipient cells results in FRET signal generation in the DID-positive recipient cells, which was measured by flow cytometry. Integrated FRET density was calculated in the top 30% of DID-positive cell based on DID signal intensity.
An Attune NxT Flow Cytometer (Invitrogen) equipped with an autosampler and FRET-compatible laser lines and filter sets was used for FRET signal detection. The FRET (CFP/YFP) signal was excited by a 405 nm laser for CFP excitation and detected in the YFP image detection channel. Flow cytometry data was analyzed using FCS Express version 5 software (DeNovo Software California, USA). Integrated FRET density was calculated as a product of percentage FRET positive cells and median of fluorescent intensity of the FRET positive cells as previously established.

[6] = system: HEK293T Tau RD P301S FRET biosensor (tau biosensor) cells; assay: EV-mediated tau seed transfer (EMT) assay; type: cell-based; details: 20 μM
[7] = system: Tau P301S (PS19 line) tauopathy mouse model; assay: Rapid in vivo assay: IL1β-induced brain EV release; design: species or system mice
[8] = system: HEK293T Tau RD P301S FRET biosensor (tau biosensor) cells; assay: EV-mediated tau seed transfer (EMT) assay; type: cell-based
Experimental: HEK293T Tau RD P301S FRET biosensor (tau biosensor) cells were grown in Dulbecco's Modified Eagle's medium (DMEM) with high glucose, 10% FBS, and 1% Penicillin-streptomycin at 37° C./5% CO2. The lead inhibitors were tested in functional tau propagation “D+R” (Donors plus Recipients) and EMT (EV-mediated transfer) assays using the tau biosensors. Briefly, tau aggregation in donor cells (D) was induced by transfection of tau biosensor cells with human AD brain derived synaptosomal extracts (35 μg of synaptosomal fraction for 5 million cells in one 10 cm dish); control cells were treated with corresponding amount of transfection reagent lipofectamine 2000. After 24 hr incubation, the cells were trypsinized and plated together with DID-labeled recipient cells (R) in a 1:1 ratio in 96-well plates (15,000 of each cell type per well) for D+R assay or 1.5 million of donor cells per well in 6-well plates for EMT assay. Tested compounds or a corresponding amount of DMSO (0.2%) was added to the cell culture medium, DMEM, which contained 10% of exosome-depleted FBS (ThermoFisher, A2720803). Four technical replicates were used for each experimental condition. The inhibitors were tested at 20 μM concentration. In 48 hours 50 μL of culture medium per well were collected for cell viability test (Cytotox 96 non-radioactive cytotoxicity assay, Promega Corp., Madison, Wis.). The cells in D+R assay were harvested at the 48 hr time point and fixed with 2% paraformaldehyde for flow cytometry analysis according to published protocol. Tau seed transfer from donor to recipient cells results in FRET signal generation in the DID-positive recipient cells, which was measured by flow cytometry. Integrated FRET density was calculated in the top 30% of DID-positive cell based on DID signal intensity.
For the EMT assay, cell culture medium from donor cells growing for 48 hours with the compounds at concentrations of 20 μM or a corresponding amount of DMSO (0.2%), was collected and EVs were purified using the ExoQuick-TC kit (SBI biosciences) according to the manufacturer's instructions. Naïve recipient cells were plated in 96 well plates at a density of 20,000 cells per well in exosome-free medium and transfected with donor cell-derived exosomes at 12 hrs. The recipient cells were harvested 60 hours after transfection and FRET signals were analyzed using flow cytometry.
An Attune NxT Flow Cytometer (Invitrogen) equipped with an autosampler and FRET-compatible laser lines and filter sets was used for FRET signal detection. […] Flow cytometry data was analyzed using FCS Express version 5 software (DeNovo Software California, USA). Integrated FRET density was calculated as a product of percentage FRET positive cells and median of fluorescent intensity of the FRET positive cells as previously established.

[9] = Brain pharmacokinetic analysis after SQ dosing
Experimental: Pharmacokinetic (PK) analysis on the leads 8 and 11 to determine brain permeability using wild type mice was performed. The compounds were subcutaneously (SQ) injected at a dose of 20 mg per kg of body weight (mpk). Brain and plasma samples were collected 1, 2, and 4 hours after dosing.

| SMILES | IC50 ([1]; IC50 AChE) | CNS perm (PAMPA) [2] | IC50 [3] | fraction unbound [4] | further results |
| --- | --- | --- | --- | --- | --- |
| COc1cc(NC(=O)Oc2ccc3c(c2)[C@]2(C)CCO[C@@H]2N3C)cc(OC)c1 [Compound 7] | 300 nM | 1.8 | 2000 nM | 0.09 |  |
| COc1ccc(NC(=O)Oc2ccc3c(c2)[C@]2(C)CCO[C@@H]2N3C)cc1 [Compound 2] | 3600 nM | 2 | 700 nM | 0.15 |  |
| CN1c2ccc(OC(=O)Nc3ccncc3)cc2[C@]2(C)CCO[C@H]12 [Compound 8] | 6000 nM |  |  | 0.28 | CNS perm (PAMPA) ([2]; PAMPA, 2 mM): 1.9; tau seed transfer from donor to recipient cells, D+R assay [5]: suppress tau propagation; also recorded: significantly suppresses; degree of binding to human serum albumin (HSA) [4]: low degree of binding; EV size distribution of donor-derived EVs (TRPS) [6]: did not affect; concentrations of exosomal-type small EVs from donor cells [6]: decreased; levels of exosomal markers CD63, CD81, and syntenin-1 in donor EVs ([6]; vs DMSO control): reduced; IL1β-induced tau release by exosomes ([7]; 20 mg/kg SQ): less effective; IL1β-induced brain EV / exosomal release (small EV concentration, TRPS) ([7]; mouse, in vivo, 20 mg/kg): didn't induce the same level of suppression; tau seed transfer from donor to recipient cells, EMT assay ([8]; 20 μM, donor cells 48 hrs): suppress tau propagation; also recorded: significantly suppresses; brain penetration (compound levels in brain tissue, LC-MS/MS) ([9]; mice, 20 mg/kg SQ): penetrated the brain; concentration at 1 h ([9]; mouse, in vivo, 20 mg/kg): 61 ng/g and ~200 nM; time of peak brain levels after SQ dosing ([9]; wild type mice, 20 mg/kg SQ): around one |
| CCN(C)C(=O)Oc1cccc([C@H](C)N(C)C)c1 [rivastigmine, reference compound] |  |  |  |  | EV-mediated transfer from donor to recipient cells ([8]; preliminary experiments, data not shown): may partially suppress |
| CN1c2ccc(OC(=O)Nc3ccncc3F)cc2[C@]2(C)CCO[C@H]12 [Compound 13] | > 5000 nM |  | 600 nM | 0.35 | CNS perm (PAMPA) ([2]; PAMPA, 2 mM): 1.3; degree of binding to human serum albumin (HSA) [4]: low degree of binding |
| CN1c2ccc(OC(=O)Nc3ccccc3)cc2[C@]2(C)CCO[C@H]12 [Compound 1, phensvenine] |  | 3.2 | > 1000 nM | 0.12 | IC50 ([1]; AChE IC50): 500 nM; nSMase2 inhibitory activity [3]: has nSMase2 inhibitory activity; also recorded: weak nSMase2 inhibition |
| CN1c2ccc(OC(=O)Nc3cncc(F)c3)cc2[C@]2(C)CCO[C@H]12 [Compound 14] | > 5000 nM | 2 | 900 nM | 0.21 |  |
| CN1c2ccc(OC(=O)NC3CCCCC3)cc2[C@]2(C)CCO[C@H]12 [Compound 5] | 300 nM | 2.8 | 3400 nM | 0.17 |  |
